Results from patent US11173144B2, “Adrenergic receptor modulating compounds and methods of using the same” (The Board of Trustees of the Leland Stanford Junior …, priority 2016, dated 2021).
Entries after “also recorded” stand apart in the source; their conditions may differ.

Legend:
ADRB1 = ADRB1 (Homo sapiens (Human), UniProt P08588); assay: β-arrestin assay (PathHunter enzyme fragment complementation, CHO-K1-ADRB1 cells); type: cell-based; conditions: Table 4
Experimental: Pharmacological activity of compounds in the β-arrestin pathway mediated by ADRB1 are evaluated using an enzyme fragment complementation method with a β-galactosidase functional reporter. An engineered CHO-K1-ADRB1 PathHunter cell line (DiscoveRx) is used in the assay. In this cell line, enzyme acceptor (β-galactosidase fragment) is fused to β-arrestin and enzyme donor (β-galactosidase fragment) is fused to the ADRB1. Thus, activation of the ADRB1 stimulates binding of β-arrestin to the ProLink-tagged ADRB1 and forces complementation of the two enzyme fragments, resulting in the formation of an active β-galactosidase enzyme. Briefly, CHO-K1-ADRB1 PathHunter cell lines are plated in a total volume of 20 μL cell plating reagent (DiscoveRx, 93-0563R0A) at a density of 2,500 cells/well into 384 well microplates and incubated overnight at 37° C. in 5% CO2. […] Chemiluminescent signal is then read with a PerkinElmer Envision™ instrument. The results are expressed as a percent of the maximum efficacy achieved with isoproterenol.
Effects of compounds on β-arrestin signaling pathways are determined using CHO cells stably expressing human β1-adrenergic receptors or human β2-adrenergic receptors with PathHunter® β-Arrestin GPCR assay system (DiscoveRx). In this system, adrenergic receptor is fused in frame with the small enzyme fragment ProLink™ and co-expressed in cell stably expressing at fusion protein of β-arrestin and the larger, N-terminal deletion mutant of β-galactosidase enzyme. Activation of the adrenergic receptor stimulates binding of β-arrestin to the ProLink-tagged receptor and forces complementation of the two enzyme fragments, resulting in the formation of an active β-gal enzyme. This interaction leads to an increase in enzyme activity that can be measured using chemiluminescent detection reagents. The effects of compounds on β-arrestin signaling pathways are determined 90 minutes after incubating the cells with the test compounds.

[1] = test system: Abeta-induced LTP impairment in hippocampal slices; assay: Long-term potentiation in hippocampal slices exposed to amyloid beta; conditions: mouse hippocampal slices, 10 uM
Experimental: Mice were anesthetized with isoflurane before decapitation. The brain was quickly removed and immersed for 2 min in ice-cold low-calcium modified artificial cerebrospinal fluid (mACSF) composed of (in mM): 119 NaCl, 2.5 KCl, 1 CaCl2, 3 MgSO4, 1 NaH2PO4, 26 NaHCO3 and 10 glucose, osmolarity ˜305 mOsm, continuously bubbled with 95% O2-5% CO2, pH=7.4. The hippocampus was dissected out and cut in ice-cold mACSF with a vibratome (Leica VT1000S; Nussloch, Germany) into […] slices from the middle part of the hippocampus. The slices were allowed to recover in oxygenated mACSF at 33° C. for 10 min, and then at room temperature for an additional 2-3 hr before experimental recordings. Slices were transferred into the recording chamber and superfused with regular ACSF containing (in mM): 119 NaCl, 2.5 KCl, 2.5 CaCl2, 1.3 MgSO4, 1 NaH2PO4, 26 NaHCO3 and 10 glucose, continuously bubbled with 95% O2-5% C02, pH=7.4, osmolarity ˜305 mOsm, at a constant rate of 2.7 mL/min at 32° C. […] The initial slope of field excitatory postsynaptic potentials (fEPSP) was measured at latencies 0.1-0.9 ms. […] After stabilization of responses, input-output dependences were measured using series of stimulation intensities (range 30-150 μA). […] LTP was induced by high-frequency tetanization ([…], 100 Hz for 1 sec), and the responses were recorded for the period of 1.5 h after the tetanus.

ADRB1, sequence (P08588 whole entry, the tested form may be a part): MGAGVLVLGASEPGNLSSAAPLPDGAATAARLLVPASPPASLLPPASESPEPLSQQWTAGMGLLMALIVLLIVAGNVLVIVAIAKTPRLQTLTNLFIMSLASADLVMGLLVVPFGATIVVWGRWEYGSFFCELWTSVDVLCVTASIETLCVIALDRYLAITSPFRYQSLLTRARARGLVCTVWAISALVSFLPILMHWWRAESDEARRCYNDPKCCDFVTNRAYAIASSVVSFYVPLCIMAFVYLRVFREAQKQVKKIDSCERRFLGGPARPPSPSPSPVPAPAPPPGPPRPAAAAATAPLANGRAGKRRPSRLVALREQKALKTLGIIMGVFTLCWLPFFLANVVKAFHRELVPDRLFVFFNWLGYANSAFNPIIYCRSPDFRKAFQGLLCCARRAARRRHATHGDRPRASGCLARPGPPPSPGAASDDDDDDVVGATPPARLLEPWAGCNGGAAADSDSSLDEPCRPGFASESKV

SMILES	β-arrestin pathway % Iso max (ADRB1; percent efficacy compared to the maximum response achieved with isoproterenol)	EC50 (ADRB1; read-out: β-arrestin pathway ADRB1 EC50)	amyloid beta-induced LTP impairment [1]
COc1ccccc1OCCNC[C@H](O)COc1ccc(O)cc1 [Compound 43]	18.3%	10 to 100 nM	
O=C(NCCNCC(O)COc1ccc(O)cc1)N1CCOCC1 (stereo not drawn) [Xamoterol, reference compound]			blocks the LTP impairment induced by Ab; also recorded: blocks the Ab-induced LTP in impairment
